According to patent US6355799B1, “Substituted benzene compounds, process for their preparation, and herbicidal and defoliant compositions containing them” (ISK Americas Incorporated, priority 1997, dated 2002):

Key:
Type in all cases: in vivo
[1] = test system: upland rice (Oryza sp., var. Tebonnet, RICE); assay: Post-emerge test, crop safety; settings: phytotoxicity rating 0-100 (0 no damage, 100 complete death), 14 days after application
Method in brief: (§1)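 Plants grown in 10 cm pots of sandy loam mix received acetone-dissolved compounds through a moving flat-fan nozzle. Doses ranged from 15 to 1000 g ai/ha. Pre-emerge pots were seeded one day earlier, post-emerge pots 8–21 days earlier. Fourteen days on, each pot was graded 0–100 for damage.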

[2] = test system: field corn (Zea mays L., var. Dekalb 535, CORN); assay: Post-emerge test, crop safety; settings: phytotoxicity rating 0-100 (0 no damage, 100 complete death), 14 days after application
Method in brief: as §1

[3] = test system: ivyleaf morningglory (Ipomoea hederacea, IPOHE); assay: Pre-emerge test, greenhouse herbicide activity screening; settings: pre-emerge, rated 14 days after application, 0 = no damage, 100 = complete death
Method in brief: (§2)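 Rating: 0–100 visual injury, 14 DAA. Application: acetone, 187 l/ha, 15–1000 g ai/ha, flat-fan track sprayer with nozzle 40–45 cm above soil or canopy. Post-emerge runs used 0.25% v/v surfactant on 2–3 leaf plants.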

[4] = test system: large crabgrass (Digitaria sanguinalis, DIGSA); assay: as above; settings: pre-emerge, rated 14 days after application, 0 = no damage, 100 = complete death
Method in brief: as §2

[5] = test system: johnsongrass (Sorghum halepense, SORHA); assay: as above; settings: pre-emerge, rated 14 days after application, 0 = no damage, 100 = complete death
Method in brief: as §2

[6] = test system: lambsquarters (Chenopodium album, CHEAL); assay: as above; settings: pre-emerge, rated 14 days after application, 0 = no damage, 100 = complete death
Method in brief: as §2

[7] = test system: sicklepod (Cassia obtusifolia, CASOB); assay: as above; settings: pre-emerge, rated 14 days after application, 0 = no damage, 100 = complete death
Method in brief: as §2

[8] = test system: barnyardgrass (Echinochloa crus-galli, ECHCG); assay: as above; settings: pre-emerge, rated 14 days after application, 0 = no damage, 100 = complete death
Method in brief: as §2

[9] = test system: velvetleaf (Abutilon theophrasti, ABUTH); assay: as above; settings: pre-emerge, rated 14 days after application, 0 = no damage, 100 = complete death
Method in brief: as §2

[10] = test system: green foxtail (Setaria viridis, SETVI); assay: as above; settings: pre-emerge, rated 14 days after application, 0 = no damage, 100 = complete death
Method in brief: as §2

[11] = test system: upland rice (Oryza sp., var. Tebonnet, RICE); assay: Pre-emerge test, crop safety; settings: pre-emerge, rated 14 days after application, 0 = no damage, 100 = complete death
Method in brief: (§3)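 Fourteen days after spraying, crop and weed injury was graded visually from 0, no effect, to 100, every plant dead. Test substances were dissolved in acetone and applied at 15–1000 g ai/ha with a flat-fan nozzle. Application was either pre-emergence, one day after sowing, or post-emergence at the 2–3 leaf stage.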

[12] = test system: field corn (Zea mays L., var. Dekalb 535, CORN); assay: Pre-emerge test, crop safety; settings: pre-emerge, rated 14 days after application, 0 = no damage, 100 = complete death
Method in brief: as §3

[13] = test system: redroot pigweed (Amaranthus retroflexus, AMARE); assay: Pre-emerge test, greenhouse herbicide activity screening; settings: pre-emerge, rated 14 days after application, 0 = no damage, 100 = complete death
Method in brief: as §2

[14] = test system: ivyleaf morningglory (Ipomoea hederacea, IPOHE); assay: Post-emerge test, greenhouse herbicide activity screening; settings: phytotoxicity rating 0-100 (0 no damage, 100 complete death), 14 days after application
Method in brief: (§4)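 Compounds in acetone were track-sprayed at 187 l/ha, 15–1000 g ai/ha, onto sandy loam pots. Pre-emerge seeds were sown one day before spraying, with surface watering afterwards. Post-emerge plants were at the 2–3 leaf stage and sprayed with 0.25% v/v non-ionic surfactant. Injury was rated 0–100 at 14 days.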

[15] = test system: large crabgrass (Digitaria sanguinalis, DIGSA); assay: as above; settings: phytotoxicity rating 0-100 (0 no damage, 100 complete death), 14 days after application
Method in brief: as §4

[16] = test system: johnsongrass (Sorghum halepense, SORHA); assay: as above; settings: phytotoxicity rating 0-100 (0 no damage, 100 complete death), 14 days after application
Method in brief: as §4

[17] = test system: lambsquarters (Chenopodium album, CHEAL); assay: as above; settings: phytotoxicity rating 0-100 (0 no damage, 100 complete death), 14 days after application
Method in brief: as §4

[18] = test system: sicklepod (Cassia obtusifolia, CASOB); assay: as above; settings: phytotoxicity rating 0-100 (0 no damage, 100 complete death), 14 days after application
Method in brief: as §4

[19] = test system: barnyardgrass (Echinochloa crus-galli, ECHCG); assay: as above; settings: phytotoxicity rating 0-100 (0 no damage, 100 complete death), 14 days after application
Method in brief: as §4

[20] = test system: redroot pigweed (Amaranthus retroflexus, AMARE); assay: as above; settings: phytotoxicity rating 0-100 (0 no damage, 100 complete death), 14 days after application
Method in brief: as §4

[21] = test system: velvetleaf (Abutilon theophrasti, ABUTH); assay: as above; settings: phytotoxicity rating 0-100 (0 no damage, 100 complete death), 14 days after application
Method in brief: as §4

[22] = test system: green foxtail (Setaria viridis, SETVI); assay: as above; settings: phytotoxicity rating 0-100 (0 no damage, 100 complete death), 14 days after application
Method in brief: as §4

Structure (SMILES): C=C(C)C(=O)N(C(=O)C(=C)C)c1c(OC)c(Cl)cc(F)c1-n1c(=O)cc(C(F)(F)F)n(C)c1=O [2-6]
- Post-emerge Herbicidal Activity RICE (crop damage) ([1]; 63 g ai/ha): 0
- Post-emerge Herbicidal Activity RICE (crop damage) ([1]; 250 g ai/ha): 0
- Post-emerge Herbicidal Activity CORN (crop damage) ([2]; 63 g ai/ha): 0
- Post-emerge Herbicidal Activity CORN (crop damage) ([2]; 250 g ai/ha): 5
- Pre-emerge Herbicidal Activity IPOHE (phytotoxicity rating, scale 0-100) ([3]; 63 g ai/ha): 0
- Pre-emerge Herbicidal Activity IPOHE (phytotoxicity rating, scale 0-100) ([3]; 250 g ai/ha): 0
- Pre-emerge Herbicidal Activity DIGSA (phytotoxicity rating, scale 0-100) ([4]; 63 g ai/ha): 0
- Pre-emerge Herbicidal Activity DIGSA (phytotoxicity rating, scale 0-100) ([4]; 250 g ai/ha): 10
- Pre-emerge Herbicidal Activity SORHA (phytotoxicity rating, scale 0-100) ([5]; 63 g ai/ha): 0
- Pre-emerge Herbicidal Activity SORHA (phytotoxicity rating, scale 0-100) ([5]; 250 g ai/ha): 20
- Pre-emerge Herbicidal Activity CHEAL (phytotoxicity rating, scale 0-100) ([6]; 63 g ai/ha): 0
- Pre-emerge Herbicidal Activity CHEAL (phytotoxicity rating, scale 0-100) ([6]; 250 g ai/ha): 0
- Pre-emerge Herbicidal Activity CASOB (phytotoxicity rating, scale 0-100) ([7]; 63 g ai/ha): 0
- Pre-emerge Herbicidal Activity CASOB (phytotoxicity rating, scale 0-100) ([7]; 250 g ai/ha): 0
- Pre-emerge Herbicidal Activity ECHCG (phytotoxicity rating, scale 0-100) ([8]; 63 g ai/ha): 0
- Pre-emerge Herbicidal Activity ECHCG (phytotoxicity rating, scale 0-100) ([8]; 250 g ai/ha): 0
- Pre-emerge Herbicidal Activity ABUTH (phytotoxicity rating, scale 0-100) ([9]; 63 g ai/ha): 0
- Pre-emerge Herbicidal Activity ABUTH (phytotoxicity rating, scale 0-100) ([9]; 250 g ai/ha): 0
- Pre-emerge Herbicidal Activity SETVI (phytotoxicity rating, scale 0-100) ([10]; 63 g ai/ha): 0
- Pre-emerge Herbicidal Activity SETVI (phytotoxicity rating, scale 0-100) ([10]; 250 g ai/ha): 80
- Pre-emerge crop damage RICE (phytotoxicity rating, scale 0-100) ([11]; 63 g ai/ha): 0
- Pre-emerge crop damage RICE (phytotoxicity rating, scale 0-100) ([11]; 250 g ai/ha): 0
- Pre-emerge crop damage CORN (phytotoxicity rating, scale 0-100) ([12]; 63 g ai/ha): 0
- Pre-emerge crop damage CORN (phytotoxicity rating, scale 0-100) ([12]; 250 g ai/ha): 0
- Pre-emerge Herbicidal Activity AMARE (phytotoxicity rating, scale 0-100) ([13]; 63 g ai/ha): 0
- Pre-emerge Herbicidal Activity AMARE (phytotoxicity rating, scale 0-100) ([13]; 250 g ai/ha): 50
- Post-emerge Herbicidal Activity IPOHE ([14]; 63 g ai/ha): 0
- Post-emerge Herbicidal Activity IPOHE ([14]; 250 g ai/ha): 30
- Post-emerge Herbicidal Activity DIGSA ([15]; 63 g ai/ha): 0
- Post-emerge Herbicidal Activity DIGSA ([15]; 250 g ai/ha): 0
- Post-emerge Herbicidal Activity SORHA ([16]; 63 g ai/ha): 0
- Post-emerge Herbicidal Activity SORHA ([16]; 250 g ai/ha): 0
- Post-emerge Herbicidal Activity CHEAL ([17]; 63 g ai/ha): 0
- Post-emerge Herbicidal Activity CHEAL ([17]; 250 g ai/ha): 30
- Post-emerge Herbicidal Activity CASOB ([18]; 63 g ai/ha): 0
- Post-emerge Herbicidal Activity CASOB ([18]; 250 g ai/ha): 0
- Post-emerge Herbicidal Activity ECHCG ([19]; 63 g ai/ha): 0
- Post-emerge Herbicidal Activity ECHCG ([19]; 250 g ai/ha): 0
- Post-emerge Herbicidal Activity AMARE ([20]; 63 g ai/ha): 0
- Post-emerge Herbicidal Activity AMARE ([20]; 250 g ai/ha): 10
- Post-emerge Herbicidal Activity ABUTH ([21]; 63 g ai/ha): 0
- Post-emerge Herbicidal Activity ABUTH ([21]; 250 g ai/ha): 70
- Post-emerge Herbicidal Activity SETVI ([22]; 63 g ai/ha): 0
- Post-emerge Herbicidal Activity SETVI ([22]; 250 g ai/ha): 0

Structure (SMILES): COc1c(Cl)cc(F)c(-n2c(=O)cc(C(F)(F)F)n(C)c2=O)c1NC(=O)C=C(C)C [2-7]
- Post-emerge Herbicidal Activity RICE (crop damage) ([1]; 63 g ai/ha): 40
- Post-emerge Herbicidal Activity RICE (crop damage) ([1]; 250 g ai/ha): 40
- Post-emerge Herbicidal Activity CORN (crop damage) ([2]; 63 g ai/ha): 0
- Post-emerge Herbicidal Activity CORN (crop damage) ([2]; 250 g ai/ha): 10
- Pre-emerge Herbicidal Activity IPOHE (phytotoxicity rating, scale 0-100) ([3]; 63 g ai/ha): 70
- Pre-emerge Herbicidal Activity IPOHE (phytotoxicity rating, scale 0-100) ([3]; 250 g ai/ha): 100
- Pre-emerge Herbicidal Activity DIGSA (phytotoxicity rating, scale 0-100) ([4]; 63 g ai/ha): 95
- Pre-emerge Herbicidal Activity DIGSA (phytotoxicity rating, scale 0-100) ([4]; 250 g ai/ha): 100
- Pre-emerge Herbicidal Activity SORHA (phytotoxicity rating, scale 0-100) ([5]; 63 g ai/ha): 90
- Pre-emerge Herbicidal Activity SORHA (phytotoxicity rating, scale 0-100) ([5]; 250 g ai/ha): 95
- Pre-emerge Herbicidal Activity CHEAL (phytotoxicity rating, scale 0-100) ([6]; 63 g ai/ha): 100
- Pre-emerge Herbicidal Activity CHEAL (phytotoxicity rating, scale 0-100) ([6]; 250 g ai/ha): 100
- Pre-emerge Herbicidal Activity CASOB (phytotoxicity rating, scale 0-100) ([7]; 63 g ai/ha): 60
- Pre-emerge Herbicidal Activity CASOB (phytotoxicity rating, scale 0-100) ([7]; 250 g ai/ha): 100
- Pre-emerge Herbicidal Activity ECHCG (phytotoxicity rating, scale 0-100) ([8]; 63 g ai/ha): 40
- Pre-emerge Herbicidal Activity ECHCG (phytotoxicity rating, scale 0-100) ([8]; 250 g ai/ha): 100
- Pre-emerge Herbicidal Activity ABUTH (phytotoxicity rating, scale 0-100) ([9]; 63 g ai/ha): 100
- Pre-emerge Herbicidal Activity ABUTH (phytotoxicity rating, scale 0-100) ([9]; 250 g ai/ha): 100
- Pre-emerge Herbicidal Activity SETVI (phytotoxicity rating, scale 0-100) ([10]; 63 g ai/ha): 95
- Pre-emerge Herbicidal Activity SETVI (phytotoxicity rating, scale 0-100) ([10]; 250 g ai/ha): 100
- Pre-emerge crop damage RICE (phytotoxicity rating, scale 0-100) ([11]; 63 g ai/ha): 60
- Pre-emerge crop damage RICE (phytotoxicity rating, scale 0-100) ([11]; 250 g ai/ha): 90
- Pre-emerge crop damage CORN (phytotoxicity rating, scale 0-100) ([12]; 63 g ai/ha): 10
- Pre-emerge crop damage CORN (phytotoxicity rating, scale 0-100) ([12]; 250 g ai/ha): 70
- Pre-emerge Herbicidal Activity AMARE (phytotoxicity rating, scale 0-100) ([13]; 63 g ai/ha): 90
- Pre-emerge Herbicidal Activity AMARE (phytotoxicity rating, scale 0-100) ([13]; 250 g ai/ha): 100
- Post-emerge Herbicidal Activity IPOHE ([14]; 63 g ai/ha): 50
- Post-emerge Herbicidal Activity IPOHE ([14]; 250 g ai/ha): 90
- Post-emerge Herbicidal Activity DIGSA ([15]; 63 g ai/ha): 0
- Post-emerge Herbicidal Activity DIGSA ([15]; 250 g ai/ha): 0
- Post-emerge Herbicidal Activity SORHA ([16]; 63 g ai/ha): 0
- Post-emerge Herbicidal Activity SORHA ([16]; 250 g ai/ha): 0
- Post-emerge Herbicidal Activity CHEAL ([17]; 63 g ai/ha): 40
- Post-emerge Herbicidal Activity CHEAL ([17]; 250 g ai/ha): 50
- Post-emerge Herbicidal Activity CASOB ([18]; 63 g ai/ha): 0
- Post-emerge Herbicidal Activity CASOB ([18]; 250 g ai/ha): 30
- Post-emerge Herbicidal Activity ECHCG ([19]; 63 g ai/ha): 0
- Post-emerge Herbicidal Activity ECHCG ([19]; 250 g ai/ha): 0
- Post-emerge Herbicidal Activity AMARE ([20]; 63 g ai/ha): 10
- Post-emerge Herbicidal Activity AMARE ([20]; 250 g ai/ha): 50
- Post-emerge Herbicidal Activity ABUTH ([21]; 63 g ai/ha): 70
- Post-emerge Herbicidal Activity ABUTH ([21]; 250 g ai/ha): 95
- Post-emerge Herbicidal Activity SETVI ([22]; 63 g ai/ha): 0
- Post-emerge Herbicidal Activity SETVI ([22]; 250 g ai/ha): 30
